The source of these data is article PMC6017631, “The Effect of Combining Natural Terpenes and Antituberculous Agents against Reference and Clinical Mycobacterium tuberculosis Strains” (Molecules : A Journal of Synthetic Chemistry and Natural …, 2018).

In one test the test system is M. tuberculosis H37Rv. To be noted: H37Rv and some Mtb drug-resistant clinical isolates ref 2, 60, 61, cited from earlier work.
For test [1], the system named is clinical isolate 126 (INH resistant). In words: microbe, parasite or virus in culture. The format is cell-based, Mycobacterium tuberculosis.
The subject of test [2] is clinical isolate 85/13 (Beijing, SIRE resistant). In words: microbe, parasite or virus in culture. The format is cell-based, Mycobacterium tuberculosis.
Test [3] relates to clinical isolate 12331 (IRE resistant). In words: microbe, parasite or virus in culture. The format is cell-based, Mycobacterium tuberculosis.
Setting [4] is: compounds tested separately, 126.
The mark [5] stands for this setting: compounds tested separately, 85/13.
The mark [6] stands for this setting: compounds tested separately, 12331.
[7] abbreviates: Mycobacterium tuberculosis, read-out: MIC for EMB in a Presence of Terpenes.
[8] abbreviates: Mycobacterium tuberculosis, read-out: MIC for INH in a Presence of Terpenes.
Where [9] appears, read: Mycobacterium tuberculosis, read-out: MIC for RMP in a Presence of Terpenes.

In brackets after ≈: the same amount, converted by molar mass. Read-outs that look alike come from different tables or passages of the source.

Turning to `Cc1cc(O)c2c(c1)C(=O)C=CC2=O` [7-methyljuglone], the figures for the FICI with M. tuberculosis H37Rv (in combination with isoniazid) and in the test with M. tuberculosis H37Rv (with rifampicin) were 0.2 and 0.5, respectively.
`C=C(C)[C@H]1CC=C(C)CC1` [(R)-limonene]: the MIC in test [1] (setting [4]) was determined as 128 µg/mL (≈ 940 µM); in test [2] (setting [5]), 256 µg/mL (≈ 1880 µM); in test [3] (setting [6]), 128 µg/mL (≈ 940 µM).
Turning to `CC[C@@H](CO)NCCN[C@@H](CC)CO` [EMB, ethambutol, reference compound], the MIC is 0.25 µg/mL (≈ 1.22 µM) in test [1] (Mycobacterium tuberculosis), 16 µg/mL (≈ 78.3 µM) in test [2] (Mycobacterium tuberculosis) and 16 µg/mL (≈ 78.3 µM) in test [3] (Mycobacterium tuberculosis).
Consider `NNC(=O)c1ccncc1` [INH, isoniazid, reference compound], for which the MIC in test [1] (Mycobacterium tuberculosis) amounted to 0.5 µg/mL (≈ 3.65 µM); in test [2] (Mycobacterium tuberculosis), 16 µg/mL (≈ 117 µM); in test [3] (Mycobacterium tuberculosis) it was 16 µg/mL (≈ 117 µM).
For `CO[C@H]1/C=C/O[C@@]2(C)Oc3c(C)c(O)c4c(O)c(c(/C=N/N5CCN(C)CC5)c(O)c4c3C2=O)NC(=O)/C(C)=C\C=C\[C@H](C)[C@H](O)[C@@H](C)[C@@H](O)[C@@H](C)[C@H](OC(C)=O)[C@@H]1C` [RMP, rifampicin, reference compound], the MIC was 0.25 µg/mL (≈ 0.304 µM) in test [1] (Mycobacterium tuberculosis), 128 µg/mL (≈ 156 µM) in test [2] (Mycobacterium tuberculosis) and 256 µg/mL (≈ 311 µM) in test [3] (Mycobacterium tuberculosis).
As to `CC(C)=CCC[C@](C)(O)C1CC=C(C)CC1` (stereo partly shown) [bisabolol], the MIC in test [1] (setting [4]) worked out at 32 µg/mL (≈ 144 µM); in test [2] (setting [5]) it was 128 µg/mL (≈ 576 µM); in test [3] (setting [6]), 256 µg/mL (≈ 1150 µM).
Regarding `C=CC(=C)CCC=C(C)C` [myrcene], the MIC in test [1] (Mycobacterium tuberculosis) is 256 µg/mL (≈ 1880 µM); in test [1] (setting [7]), 0.25 µg/mL; in test [1] (setting [8]), 0.5 µg/mL; in test [1] (setting [9]), 0.25 µg/mL; in test [2] (Mycobacterium tuberculosis), greater than 512 µg/mL; in test [2] (setting [7]), 16 µg/mL. Besides, the MIC in test [2] (setting [8]) turned out to be 16 µg/mL; in test [2] (setting [9]) it was 128 µg/mL; in test [3] (Mycobacterium tuberculosis), 512 µg/mL (≈ 3760 µM); in test [3] (setting [7]), 16 µg/mL; in test [3] (setting [8]), 16 µg/mL; in test [3] (setting [9]) it was 256 µg/mL.
In the case of `CCCCCCCC/C=C\CCCCCCCC(=O)O` [oleic acid], the FICI in the test on M. tuberculosis H37Rv (in combination with isoniazid, rifampicin and ethambutol) is 0.09–0.36.
`C=C1CCC2(C(C)C)CC12` (stereo not shown) [sabinene]: the MIC in test [1] (Mycobacterium tuberculosis) worked out at 128 µg/mL (≈ 940 µM); in test [1] (setting [7]) it was 0.25 µg/mL; in test [1] (setting [8]) it was 0.5 µg/mL; in test [1] (setting [9]), 0.25 µg/mL; in test [2] (Mycobacterium tuberculosis), 512 µg/mL (≈ 3760 µM); in test [2] (setting [7]), 16 µg/mL. Moreover, the MIC in test [2] (setting [8]) is 16 µg/mL; in test [2] (setting [9]), 128 µg/mL; in test [3] (Mycobacterium tuberculosis), greater than 512 µg/mL; in test [3] (setting [7]) it was 16 µg/mL; in test [3] (setting [8]), 16 µg/mL; in test [3] (setting [9]), 256 µg/mL.
For the compound `CC(=O)c1c(O)c(C)c(O)c2c1OC1=CC(=O)C(C(C)=O)C(=O)C12C` (stereo not shown) [usnic acid], the FICI in the test with M. tuberculosis H37Rv (with rifampicin) is listed as 0.25–0.38.
As to `CC1=CCC2CC1C2(C)C` (stereo not drawn) [α-pinene], the MIC in test [1] (Mycobacterium tuberculosis) was 128 µg/mL (≈ 940 µM); in test [1] (setting [7]), 0.25 µg/mL; in test [1] (setting [8]) it was 0.5 µg/mL; in test [1] (setting [9]), 0.25 µg/mL; in test [2] (Mycobacterium tuberculosis), 512 µg/mL (≈ 3760 µM); in test [2] (setting [7]) it was 16 µg/mL. In addition, the MIC in test [2] (setting [8]) is 16 µg/mL; in test [2] (setting [9]), 128 µg/mL; in test [3] (Mycobacterium tuberculosis), greater than 512 µg/mL; in test [3] (setting [7]), 16 µg/mL; in test [3] (setting [8]) it was 16 µg/mL; in test [3] (setting [9]), 256 µg/mL.
Regarding `C=C[C@]1(C)CC[C@@H](C(=C)C)C[C@H]1C(=C)C` [β-elemene], the MIC is 256 µg/mL (≈ 1250 µM) in test [1] (setting [4]), greater than 512 µg/mL in test [2] (setting [5]) and 256 µg/mL (≈ 1250 µM) in test [3] (setting [6]).
Consider (S)-limonene, for which the MIC is 256 µg/mL in test [1] (setting [4]), greater than 512 µg/mL in test [2] (setting [5]) and 512 µg/mL in test [3] (setting [6]).
